pIC50: −log10 of the molar value. Where two headings read alike, the source gives them in different places.
What was measured:
CDK4/cyclin D1 = CDK4/cyclin D1 (Homo sapiens (Human), UniProt P11802); test: CDK4/cyclin D1 enzymatic activity assay (TR-FRET, phosphorylation of pRb at Ser780); format: biochemical
Protocol: CDK4/Cyclin D1 Enzymatic Activity Assay
An assay for monitoring CDK4/cyclin D1-catalyzed phosphorylation of pRb at the Ser780 site was performed using TR-FRET in a 384-well format, and was used for IC50 determination and kinetic analysis. […] 3 μM ATP was added last to initiate the reaction. The reaction was quenched with 10 μL of 240 mM EDTA-Na (pH 8.0) after 60 min incubation at 22° C.
Human CDK4/cyclin D1 was expressed in Sf21 cells via baculovirus infection.

CDK1/cyclin B = CDK1/cyclin B (Homo sapiens (Human), UniProt P06493); test: CDK1/cyclin B enzymatic activity assay (IMAP-FP); format: biochemical; conditions: 100 nM Tamra Histone-H1 peptide, 20 μM ATP, 120 min at room temperature, read-out: Biochemical CDK1 enzyme IC50
Sequence of CDK1/cyclin B (P06493 whole entry, species assumed): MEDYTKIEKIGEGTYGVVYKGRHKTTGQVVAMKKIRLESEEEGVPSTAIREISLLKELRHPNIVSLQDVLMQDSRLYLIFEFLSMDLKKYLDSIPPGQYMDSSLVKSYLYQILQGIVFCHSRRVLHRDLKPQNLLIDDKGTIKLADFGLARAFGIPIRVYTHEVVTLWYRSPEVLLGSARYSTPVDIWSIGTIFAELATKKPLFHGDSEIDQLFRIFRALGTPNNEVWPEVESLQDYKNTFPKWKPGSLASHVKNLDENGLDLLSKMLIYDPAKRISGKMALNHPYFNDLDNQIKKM
Sequence of CDK1/cyclin B (P14635 whole entry partner, species assumed): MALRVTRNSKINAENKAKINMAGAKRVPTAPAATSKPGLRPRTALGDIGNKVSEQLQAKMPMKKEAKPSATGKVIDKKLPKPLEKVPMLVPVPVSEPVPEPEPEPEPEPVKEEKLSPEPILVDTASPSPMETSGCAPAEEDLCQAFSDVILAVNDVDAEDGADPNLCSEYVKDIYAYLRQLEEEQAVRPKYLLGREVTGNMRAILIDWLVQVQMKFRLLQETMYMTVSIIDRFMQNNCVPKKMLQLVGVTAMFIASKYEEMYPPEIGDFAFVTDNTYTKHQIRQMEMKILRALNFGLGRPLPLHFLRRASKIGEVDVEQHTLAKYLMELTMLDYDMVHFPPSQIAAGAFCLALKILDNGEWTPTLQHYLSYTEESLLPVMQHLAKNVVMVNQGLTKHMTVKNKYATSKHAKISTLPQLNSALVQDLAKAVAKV
Description: CDK1/Cyclin B Enzymatic Activity Assay
A 384-well microtiter IMAP-FP™ (Molecular Devices Trade Mark Technology) endpoint assay was used for CDK1/cyclin B kinase activity measurements. The same assay was used for IC50 determination of small molecule inhibitors.

[1] = system: phosphorylation of pRb at the Ser780 site in JeKo-1 mantle cell lymphoma cells; test: CDK4 cellular assay: ELISA of pRb phosphorylation at Ser780 in JeKo-1 cells; format: cell-based; conditions: Homo sapiens
Description: Cell-based assay measuring phosphorylation levels of pRb at the Ser780 site using an enzyme-linked immunosorbent assay (ELISA) method (Table 6). JeKo-1, a mantle-cell lymphoma cell line, was selected for use in this assay due to its known translocation and subsequent overexpression of cyclin D1. [Ref: Amin, H. M.; McDonnell, T. J.; Medeiros, L. J.; Rassidakis, G. Z.; Leventaki, V.; O'Connor, S. L.; Keating, M. J.; Lai, R. Characterization of 4 mantle cell lymphoma cell lines—Establishment of an in vitro study model. Arch. Pathol. Lab.
Cells were allowed to adhere overnight. […] 10 μL of the dilution were then transferred to the cell culture plate, resulting in a final concentration range of 10 μM to 2 nM. The incubation was carried out at 37° C. with 5% CO2. All compounds were tested in triplicates at each concentration. […] The plates were placed at 4° C. with vigorous shaking for 5 min to lyse the cells. The resulting lysates contained approximately 1 μg/μL of protein.
Plates were incubated overnight at 4° C. with rocking. […] After shaking for 10 minutes, the Superblock solution was replaced with fresh Superblock and plates were incubated on a shaker for an additional 50 min. After blocking, 30 μL of JeKo-1 cell lysate, containing approximately 10 μg total protein, were added to wells in triplicate. […] For all incubation steps, plates were covered with Uniseal plate sealers. […] Next, 50 μL of a 1:2500 dilution of donkey-anti-rabbit HRP (Promega catalog no. W401B) in PBS/10% Superblock were added, and plates were incubated for 30 min at room temperature on a shaker. Plates were again washed as described above. […] After incubation, 50 μL 2 M sulfuric acid were added to plates to top the reaction, and absorbance was determined on a SpectraMax (Molecular Devices, Sunnydale, Calif.) within 15 minutes at 450 nm. All washes were performed using a Bio-Tek plate washer.
The Total Rb ELISA kit (Invitrogen catalog no. KH00011) was used to determine the levels of total pRb. This kit uses wells precoated with a proprietary total pRb antibody for capture. All reagents listed, with the exception of cell lysate, were included in the kit. The nature of the antibodies used for capture and detection was labeled as proprietary and not disclosed. 10 μg of cell lysate was loaded into the wells and volume adjusted to 50 μL with standard dilution buffer. Plates were sealed with film included in the kit and incubated for 2 h at room temperature on a shaker. Plates are then manually washed three times with 250 μL wash buffer. 50 μL of proprietary primary antibody (pre-conjugated to biotin) was added to wells and incubated for 1 h at room temperature on a shaker. Then plates were again washed as noted above. The secondary antibody (HRP pre-conjugated to Streptavidin) was diluted 1:100 in Streptavidin-HRP diluent buffer and 50 μL was added to each well. Plates were then incubated for 30 min. Afterwards, plates were washed four times with buffer as outlined above. Finally, 50 μL stabilized Chromogen was added per well and plates were incubated for 15 min, at which point 50 μL of stop solution was added. Plates were then read on a Spectramax at 450 nm.
The total pRb levels were then used to adjust the p-pRb % inhibition values to account for any loss of signal due to the absence of the pRb protein itself, and the IC50 values obtained from the adjusted % inhibitions represent normalized cellular p-pRb IC50.

[2] = 0.3 nM CDK4/cyclin D1, 150 nM biotin-pRb (773-924), 3 μM ATP, 60 min at 22° C., read-out: Biochemical CDK4 enzyme IC50
[3] = JeKo-1, JeKo-1 cells, p-pRb % inhibition adjusted with total pRb levels, read-out: Normalized cellular ppRb inhibition IC50
[4] = JeKo-1, JeKo-1 cells, p-pRb Ser780 ELISA, non-normalized, read-out: Cellular ppRb inhibition IC50
[5] = JeKo-1 cells, p-pRb % inhibition adjusted with total pRb levels, read-out: Normalized cellular ppRb inhibition IC50
[6] = JeKo-1 cells, p-pRb Ser780 ELISA, non-normalized, read-out: Cellular ppRb inhibition IC50

Sequence of CDK4/cyclin D1 (P11802 whole entry): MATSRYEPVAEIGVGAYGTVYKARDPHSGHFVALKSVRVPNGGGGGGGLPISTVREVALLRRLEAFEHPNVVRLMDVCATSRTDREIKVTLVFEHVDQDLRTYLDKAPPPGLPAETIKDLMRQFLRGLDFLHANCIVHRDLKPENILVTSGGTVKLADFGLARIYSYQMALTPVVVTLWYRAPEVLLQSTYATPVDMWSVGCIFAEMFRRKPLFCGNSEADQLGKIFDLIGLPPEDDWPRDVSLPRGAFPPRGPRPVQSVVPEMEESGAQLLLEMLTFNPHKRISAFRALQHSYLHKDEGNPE
Sequence of CDK4/cyclin D1 (P24385 whole entry partner): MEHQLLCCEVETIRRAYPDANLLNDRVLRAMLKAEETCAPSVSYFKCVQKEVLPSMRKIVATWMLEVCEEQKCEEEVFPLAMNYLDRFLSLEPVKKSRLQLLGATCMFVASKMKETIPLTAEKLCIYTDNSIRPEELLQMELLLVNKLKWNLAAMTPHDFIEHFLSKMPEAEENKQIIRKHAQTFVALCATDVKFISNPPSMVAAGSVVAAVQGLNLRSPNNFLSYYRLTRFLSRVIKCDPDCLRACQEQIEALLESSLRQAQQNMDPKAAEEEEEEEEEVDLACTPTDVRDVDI

Question: `CN(C)C(=O)c1cc2cnc(Nc3ccc(C(=O)N4C[C@H]5CN[C@H](C5)C4)cn3)nc2n1C1CCCC1` [Example 11, 7-Cyclopentyl-2-[5-((1R,5R)-3,6-diaza-bicyclo[3.2.1]octane-3-carbonyl)-pyridin-2-ylamino]-7H-pyrrolo[2,3-d]pyrimidine-6-carboxylic acid dimethylamide] was tested. Which pIC50 (CDK4/cyclin D1; [2]) did it give?
Answer: 8.05

Question: What about the pIC50 (CDK1/cyclin B; […] CDK1/cyclin B) of the same molecule?
Answer: < 4.82

Question: And the pIC50 [1, 3]?
Answer: 7.17

Question: What about the pIC50 [1, 4] of the same molecule?
Answer: 7.41

Question: Which results are given for `CN(C)C(=O)c1cc2cnc(Nc3ccc(N4C[C@@]5(CCCNCC5)OC4=O)cn3)nc2n1C1CCCC1` [Example 105, 7-Cyclopentyl-2-[5-((S)-2-oxo-1-oxa-3,8-diaza-spiro[4.6]undec-3-yl)-pyridin-2-ylamino]-7H-pyrrolo[2,3-d]pyrimidine-6-carboxylic acid dimethylamide]?
Answer: pIC50 (CDK4/cyclin D1; [2]): 7.92; pIC50 (CDK1/cyclin B; […] CDK1/cyclin B): < 4.82; pIC50 [1, 5]: 7.00; pIC50 [1, 6]: 7.21

Question: Which results are given for `CSCC[C@@H](N)C(=O)N1C2CCC1CN(C(=O)c1ccc(Nc3ncc4cc(C(=O)N(C)C)n(C5CCCC5)c4n3)nc1)C2` [Example 59, 2-{5-[8-((R)-2-Amino-4-methylsulfanyl-butyryl)-3,8-diaza-bicyclo[3.2.1]octane-3-carbonyl]-pyridin-2-ylamino}-7-cyclopentyl-7H-pyrrolo[2,3-d]pyrimidine-6-carboxylic acid dimethylamide]?
Answer: pIC50 (CDK4/cyclin D1; [2]): 8.10; pIC50 (CDK1/cyclin B; […] CDK1/cyclin B): < 4.82; pIC50 [1, 5]: < 5.00; pIC50 [1, 6]: 5.60

Question: How did the pIC50 (CDK4/cyclin D1) turn out when `CN(C)C(=O)c1cc2cnc(Nc3ccc(N4CC5CCC(N5)C4=O)cn3)nc2n1C1CCCCCC1` (stereo not shown) [Example 80, 7-Cycloheptyl-2-[5-(2-oxo-3,8-diaza-bicyclo[3.2.1]oct-3-yl)-pyridin-2-ylamino]-7H-pyrrolo[2,3-d]pyrimidine-6-carboxylic acid dimethylamide] was run?
Answer: 7.85 to 7.92

Question: And the pIC50 (CDK1/cyclin B; 0.25 nM CDK1/cyclin B)?
Answer: 4.85

Question: What about the pIC50 [1, 3] of the same molecule?
Answer: 6.32 to 7.13

Question: And the pIC50 [1, 4]?
Answer: 6.49 to 7.29

Question: How did the pIC50 (CDK4/cyclin D1; [2]) turn out when `Cc1nc(Nc2ncc3cc(C(=O)N(C)C)n(C4CCCC4)c3n2)ccc1C(=O)N1CC2CCC(C1)N2` [Example 50, 7-Cyclopentyl-2-[5-(3,8-diaza-bicyclo[3.2.1]octane-3-carbonyl)-6-methyl-pyridin-2-ylamino]-7H-pyrrolo[2,3-d]pyrimidine-6-carboxylic acid dimethylamide] was run?
Answer: 7.68

Question: And the pIC50 (CDK1/cyclin B; […] CDK1/cyclin B)?
Answer: < 4.82

Question: And the pIC50 [1, 3]?
Answer: 7.05

Question: And the pIC50 [1, 4]?
Answer: 7.39

Question: Which results are given for `CN(C)C(=O)c1cc2cnc(Nc3ccc(C(=O)N4C[C@@H]5C[C@H]4C[C@@H]5O)cn3)nc2n1C1CCCC1` [Example 30, 7-cyclopentyl-2-(5-((1S,4S,5S)-5-hydroxy-2-azabicyclo[2.2.1]heptane-2-carbonyl)pyridin-2-ylamino)-N,N-dimethyl-7H-pyrrolo[2,3-d]pyrimidine-6-carboxamide]?
Answer: pIC50 (CDK4/cyclin D1; [2]): 6.94 to 7.06; pIC50 (CDK1/cyclin B; […] CDK1/cyclin B): < 4.82; pIC50 [1, 5]: 6.24 to 6.46; pIC50 [1, 6]: 6.27 to 6.37

Question: With `CN(C)C(=O)c1cc2cnc(Nc3ccc(N4C[C@@H]5CNC[C@@H]5C4=O)cn3)nc2n1C1CCCC1` [Example 85, 7-cyclopentyl-N,N-dimethyl-2-(5-((3aS,6aR)-1-oxohexahydropyrrolo[3,4-c]pyrrol-2(1H)-yl)pyridin-2-ylamino)-7H-pyrrolo[2,3-d]pyrimidine-6-carboxamide] as the molecule, how does the pIC50 (CDK4/cyclin D1; [2]) read?
Answer: 8.15 to 8.30

Question: And the pIC50 (CDK1/cyclin B; 0.25 nM CDK1/cyclin B)?
Answer: 4.95 to 5.05

Question: What about the pIC50 [1, 3] of the same molecule?
Answer: 7.68 to 8.05

Question: And the pIC50 [1, 4]?
Answer: 7.77 to 8.30

Question: `CN(C)C(=O)c1cc2cnc(Nc3ccc(C(=O)N4CC5CCCC(C4)N5)cn3)nc2n1C1CCCC1` [Example 52, 7-Cyclopentyl-2-[5-(3,9-diaza-bicyclo[3.3.1]nonane-3-carbonyl)-pyridin-2-ylamino]-7H-pyrrolo[2,3-d]pyrimidine-6-carboxylic acid dimethylamide] was tested. Which pIC50 (CDK4/cyclin D1; [2]) did it give?
Answer: 7.57

Question: What about the pIC50 [1, 5] of the same molecule?
Answer: 7.28 to 7.35

Question: And the pIC50 [1, 6]?
Answer: 7.33 to 7.68

Question: `CN(C)C(=O)c1cc2cnc(Nc3ccc(C(=O)N4CC[C@H]5CC[C@@H](C4)N5)cn3)nc2n1C1CCCC1` [Example 71, 7-Cyclopentyl-2-[5-((1S,6R)-3,9-diaza-bicyclo[4.2.1]nonane-3-carbonyl)-pyridin-2-ylamino]-7H-pyrrolo[2,3-d]pyrimidine-6-carboxylic acid dimethylamide] was tested. Which pIC50 (CDK4/cyclin D1; [2]) did it give?
Answer: 8.22 to 8.30

Question: And the pIC50 [1, 5]?
Answer: 7.25

Question: And the pIC50 [1, 6]?
Answer: 7.51

Question: `CN(C)C(=O)c1cc2cnc(Nc3ccc(C(=O)N4CC5CCC(C4)N5)cn3)nc2n1C1CCN(C2CC2)CC1` [Example 56, 7-(1-cyclopropyl-piperidin-4-yl)-2-[5-(3,8-diaza-bicyclo[3.2.1]octane-3-carbonyl)-pyridin-2-ylamino]-7H-pyrrolo[2,3-d]pyrimidine-6-carboxylic acid dimethylamide] was tested. Which pIC50 [1, 3] did it give?
Answer: 6.33

Question: And the pIC50 [1, 4]?
Answer: 6.40

Question: How did the pIC50 [1, 5] turn out when `CN(C)C(=O)c1cc2cnc(Nc3ccc(N4CC5CCC(CC4=O)N5)cn3)nc2n1-c1ccc(C(C)(C)C#N)cc1` (stereo not shown) [Example 127, 7-(4-(2-cyanopropan-2-yl)phenyl)-N,N-dimethyl-2-(5-(4-oxo-3,9-diazabicyclo[4.2.1]nonan-3-yl)pyridin-2-ylamino)-7H-pyrrolo[2,3-d]pyrimidine-6-carboxamide] was run?
Answer: 5.82 to 6.61

Question: And the pIC50 [1, 6]?
Answer: 6.04 to 6.92

Question: Which results are given for `CN(C)C(=O)c1cc2cnc(Nc3ccc(C(=O)N4CCC5CCC(C4)N5)cn3)nc2n1C1CCCC1` (racemic) [Example 69, 7-Cyclopentyl-2-[5-(3,9-diaza-bicyclo[4.2.1]nonane-3-carbonyl)-pyridin-2-ylamino]-7H-pyrrolo[2,3-d]pyrimidine-6-carboxylic acid dimethylamide]?
Answer: pIC50 (CDK4/cyclin D1; [2]): 7.74 to 8.30; pIC50 [1, 5]: 7.32; pIC50 [1, 6]: 7.62

Question: `CN(C)C(=O)c1cc2cnc(Nc3ccc(C(=O)N4CC5CCC(C4)N5)cn3)nc2n1C1CCC1` [Example 55, 7-Cyclobutyl-2-[5-(3,8-diaza-bicyclo[3.2.1]octane-3-carbonyl)-pyridin-2-ylamino]-7H-pyrrolo[2,3-d]pyrimidine-6-carboxylic acid dimethylamide] was tested. Which pIC50 [1, 5] did it give?
Answer: 6.79 to 7.46

Question: And the pIC50 [1, 6]?
Answer: 6.95 to 7.51

Question: Which results are given for `CN(C)C(=O)c1cc2cnc(Nc3ccc(N4CCC5(CCCN5)C4=O)cn3)nc2n1C1CCCC1` (stereo not shown) [Example 113, 7-Cyclopentyl-2-[5-(6-oxo-1,7-diaza-spiro[4,4]non-7-yl)-pyridin-2-ylamino]-7H-pyrrolo[2,3-d]pyrimidin-6-carboxylic acid dimethylamide]?
Answer: pIC50 (CDK4/cyclin D1; [2]): 7.68 to 7.77; pIC50 [1, 3]: 6.61 to 6.69; pIC50 [1, 4]: 6.69 to 6.75

Question: `CN(C)C(=O)c1cc2cnc(Nc3ccc(C(=O)N4CC[C@@H]5CC[C@H](C4)N5)cn3)nc2n1C1CCCC1` [Example 72, 7-cyclopentyl-2-[5-((1R,6S)-3,9-diaza-bicyclo[4.2.1]nonane-3-carbonyl)-pyridin-2-ylamino]-7H-pyrrolo[2,3-d]pyrimidine-6-carboxylic acid dimethylamide] was tested. Which pIC50 (CDK4/cyclin D1; [2]) did it give?
Answer: 7.89

Question: What about the pIC50 [1, 5] of the same molecule?
Answer: 6.95

Question: What about the pIC50 [1, 6] of the same molecule?
Answer: 7.32
